Assay results published in patent US4335108A, “Paulomycin A and B and preparation thereof” (The Upjohn Company, priority 1980, dated 1982).
Values after ≈ are worked out from the molar mass of the structure shown.

Legend:
[1] = test system: Gram-positive bacteria; assay: Antibacterial activity against Gram-positive bacteria; format: cell-based
Experimental: (§1) The antibacterial assay is a standard microplate agar assay using PYG agar, pH 6. PYG agar consists of the following ingredients:
(§2) The MIC is determined by standard methods. The inocula are overnight cultures of the test organisms, diluted so that the final population contains approximately 10^5 cells/ml. The agar plates are incubated at 28° to 37° C. for 24 hours. The lowest antibiotic concentration which allows no growth=MIC or minimum inhibitory concentration.
(§3) Assay. The antibacterial assay is a standard microplate agar assay using PYG agar, pH 6. The MIC is determined by standard methods. The inocula are overnight cultures of the test organisms, diluted so that the final population contains approximately 10^5 cells/ml. The agar plates are incubated at 28° to 37° C. for 24 hours. The lowest antibiotic concentration which allows no growth=MIC or minimum inhibitory concentration.

[2] = test system: L-1210; assay: Antitumor (in vitro) activity; format: cell-based; settings: L-1210, in vitro
[3] = test system: S. aureus 6685; assay: Antibacterial microplate agar assay (MIC); format: cell-based, Staphylococcus aureus; settings: PYG agar, pH 6, 24 hours, 28° to 37° C.
Experimental: as §1, §2, §3

[4] = test system: S. aureus 6690; assay: Antibacterial microplate agar assay (MIC); format: cell-based, Staphylococcus aureus; settings: PYG agar, pH 6, 24 hours, 28° to 37° C.
Experimental: as §1, §2, §3

[5] = test system: S. aureus UC 76; assay: Antibacterial microplate agar assay (MIC); format: cell-based, Staphylococcus aureus; settings: PYG agar, pH 6, 24 hours, 28° to 37° C.
Experimental: as §1, §2, §3

[6] = 60% aq. ethanol
[7] = test system: K. pneumoniae 58; assay: Antibacterial microplate agar assay (MIC); format: cell-based; settings: PYG agar, pH 6, 24 hours, 28° to 37° C.
Experimental: as §1, §2, §3

[8] = test system: S. schottmuelleri 126; assay: Antibacterial microplate agar assay (MIC); format: cell-based; settings: PYG agar, pH 6, 24 hours, 28° to 37° C.
Experimental: as §1, §2, §3

[9] = test system: P. stuartii 6570; assay: Antibacterial microplate agar assay (MIC); format: cell-based; settings: PYG agar, pH 6, 24 hours, 28° to 37° C.
Experimental: as §1, §2, §3

[10] = test system: S. flexneri 143; assay: Antibacterial microplate agar assay (MIC); format: cell-based; settings: PYG agar, pH 6, 24 hours, 28° to 37° C.
Experimental: as §1, §2, §3

[11] = test system: Ps. aeruginosa 95; assay: Antibacterial microplate agar assay (MIC); format: cell-based; settings: PYG agar, pH 6, 24 hours, 28° to 37° C.
Experimental: as §1, §2, §3

[12] = test system: E. coli 45; assay: Antibacterial microplate agar assay (MIC); format: cell-based; settings: PYG agar, pH 6, 24 hours, 28° to 37° C.
Experimental: as §1, §2, §3

[13] = test system: S. marcescens 131; assay: Antibacterial microplate agar assay (MIC); format: cell-based; settings: PYG agar, pH 6, 24 hours, 28° to 37° C.
Experimental: as §1, §2, §3

[14] = test system: E. cloacae 6783; assay: Antibacterial microplate agar assay (MIC); format: cell-based; settings: PYG agar, pH 6, 24 hours, 28° to 37° C.
Experimental: as §1, §2, §3

[15] = test system: Enterococcus sp. 701; assay: Antibacterial microplate agar assay (MIC); format: cell-based; settings: PYG agar, pH 6, 24 hours, 28° to 37° C.
Experimental: as §1, §2, §3

[16] = test system: S. faecalis 694; assay: Antibacterial microplate agar assay (MIC); format: cell-based, Streptococcus faecalis; settings: PYG agar, pH 6, 24 hours, 28° to 37° C.
Experimental: as §1, §2, §3

## C/C=C(\N=C=S)C(=O)O[C@H]1[C@@H](O[C@H]2C[C@H](OC)[C@@](O)([C@H](C)OC(=O)C(C)C)[C@H](C)O2)[C@@H](O)[C@H]([C@@]2(O)CC(=O)C(=N)C(C(=O)O)=C2O)O[C@@H]1COC(C)=O [Paulomycin B]
[1]; for example Bacillus subtilis, Staphylococcus aureus, Streptococcus pyogenes and Streptococcus faecalis
  adversely affecting the growth of Gram-positive bacteria: adversely affecting the growth of Gram-positive bacteria
[1]; in words
  activity against various Gram-positive bacteria: active against various Gram-positive bacteria
[2]
  ID50: 8.6 µg/mL (≈ 11.1 µM)
  ID90: 21 µg/mL (≈ 27.2 µM)
[3]
  Minimum Inhibitory Concentration: 0.50 µg/mL
[4]
  Minimum Inhibitory Concentration: 2.0 µg/mL
[5]
  Minimum Inhibitory Concentration: 0.50 µg/mL
[6]
  pKa: 7.4
[7]
  Minimum Inhibitory Concentration: 250 µg/mL
[8]
  Minimum Inhibitory Concentration: 500 µg/mL
[9]
  Minimum Inhibitory Concentration: 250 µg/mL
[10]
  Minimum Inhibitory Concentration: 250 µg/mL
[11]
  Minimum Inhibitory Concentration: 250 µg/mL
[12]
  Minimum Inhibitory Concentration: 250 µg/mL
[13]
  Minimum Inhibitory Concentration: 250 µg/mL
[14]
  Minimum Inhibitory Concentration: 500 µg/mL
[15]
  Minimum Inhibitory Concentration: 31.2 µg/mL
[16]
  Minimum Inhibitory Concentration: 125 µg/mL
